Measured values: article PMC5111108, “An insecticide resistance-breaking mosquitocide targeting inward rectifier potassium channels in vectors of Zika virus and malaria” (Scientific Reports, 2016)

Columns and labels:
[1] = tested on: An. gambiae; assay: Fecundity (eggs laid) in An. gambiae; assay type: in vivo, Anopheles gambiae; details: VU041 ~1 μg/mg, VU937 ~10 μg/mg, topical within 1 h after engorgement, 72 h post blood feeding
Protocol: After treatment with the respective drugs, individual female mosquitoes were transferred to Drosophila vials (Fisher Scientific, Pittsburg, OA) containing 2 mL of water. The total number of eggs were counted 72-hours after being transferred to the vial. Any mosquitoes that died during this 72-hour period were excluded from the analysis. […] At least 25 female mosquitoes were used per replicate for each treatment group; each treatment was repeated on three separate broods, giving a total number of individuals studied ranging from 75–113 for each group.

[2] = biological target: T1, AeKir1 (Aedes aegypti, UniProt L0EQS9); assay: Tl+ flux assay, AeKir1; assay type: cell-based
T1 sequence (L0EQS9 1-486): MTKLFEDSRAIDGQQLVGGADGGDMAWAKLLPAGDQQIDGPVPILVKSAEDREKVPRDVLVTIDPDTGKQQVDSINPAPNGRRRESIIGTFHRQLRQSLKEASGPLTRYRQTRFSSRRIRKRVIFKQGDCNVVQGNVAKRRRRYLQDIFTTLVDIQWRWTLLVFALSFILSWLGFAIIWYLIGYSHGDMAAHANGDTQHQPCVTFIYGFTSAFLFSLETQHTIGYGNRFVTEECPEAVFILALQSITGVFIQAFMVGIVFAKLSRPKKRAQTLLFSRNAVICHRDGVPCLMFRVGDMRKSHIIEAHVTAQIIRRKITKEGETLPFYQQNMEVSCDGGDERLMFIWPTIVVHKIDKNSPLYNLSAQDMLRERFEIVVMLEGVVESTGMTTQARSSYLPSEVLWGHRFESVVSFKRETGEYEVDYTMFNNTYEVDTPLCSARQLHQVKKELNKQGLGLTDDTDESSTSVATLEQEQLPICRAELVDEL

[3] = tested on: Ae. aegypti; assay: Fecundity (eggs laid) in Ae. aegypti; assay type: in vivo, Aedes aegypti; details: 3.4 μg/mg mosquito, topical within 1 h after engorgement, 72 h post blood feeding
Protocol: The mosquitoes were returned to rearing conditions for 24 h after which they were transferred to individual egg laying tubes consisting of a glass tube 21 × 70 mm (Fisher Scientific, Pittsburg, PA) with a piece of coffee filter ([…] USA, Clearwater, FL) cut to fit the bottom of the tube. The filter was wetted with 150 μl of dH2O and the open end of the tube was plugged with a cotton ball. The mosquitoes in their individual egg laying tubes were returned to rearing conditions for an additional 48 h, and the number of eggs laid were counted. Any mosquitoes that died during the 72 h period after blood feeding were excluded from the analysis. Thirty female mosquitoes were used per replicate for each treatment group; each treatment was repeated on four separate broods, giving a total number of individuals studied ranging from 87-113 for each treatment group. For both species, the median number of eggs laid per mosquito was compared using a Kruskal-Wallis ANOVA with a Dunn's post-hoc analysis (Prism 6, Graphpad Software).

[4] = tested on: An. gambiae Akron strain; assay: Topical toxicity bioassay, An. gambiae Akron strain adult females; assay type: in vivo; details: 24 h, adult female An. gambiae, (95% confidence limits), synergist PBO applied 4 h prior where labelled
Protocol: (§1) Topical toxicity bioassays were performed based on the method of Pridgeon et al.[50]. Briefly, non-blood fed adult female mosquitoes were chilled on ice for 1–3 minutes, during which 200 nL of chemical (dissolved in 95% ethanol) was applied onto the abdomen of the insect using a handheld Hamilton® micro-applicator. For synergism studies, 500 ng of the synergist (i.e., piperonyl butoxide [PBO] or S,S,S-tributyl phosphorotrithioate [DEF]) per milligram of mosquito (ng/mg) was applied to the abdomen 4 h prior to application of the insecticide. […] The three ED50 values obtained were then averaged and presented as a mean. An ethanol-only treatment was included in each experiment as a negative control. Treated mosquitoes were transferred to small cages with access to 10% sucrose and held under rearing conditions for 24 h. Mortality was recorded at 24 h.

[5] = tested on: An. gambiae; assay: Blood meal processing (abdominal diameter) in An. gambiae; assay type: in vivo, Anopheles gambiae; details: topical 1 μg/mg (ED30 dose of VU041) immediately after engorgement, over 24 h
Protocol: Blood meal processing studies were performed with similar methods as described above, with the exception that An. gambiae were blood fed on anesthetized mice. All methods were carried out in accordance with Vanderbilt Institutional Animal Care and Use Committee approval (protocol M/13/164 to Dr. Julian Hillyer, Department of Biology, Vanderbilt University). Upon completion of blood feeding, female mosquitoes with a fully distended abdomen were selected and 200 nL of chemical at a non-lethal concentration (1 μg/mg) was applied directly to the abdomen. Any mosquito that died during the 24 h observation period was excluded from the analysis. Images of the abdomens were acquired at 0, 2, 5, 8, and 24 h through the dorsal cuticle and were measured at the widest point of the abdomen. These images were captured using bright-field illumination on a Nikon 90i light microscope (Nikon Corp., Tokyo, Japan) connected to a Photometrics CoolSNAP HQ2 high-sensitivity monochrome CCD camera (Roper Scientific, Ottobrunn, Germany). Digital images were acquired using Nikon Advanced Research NIS-Elements software. Mean abdominal diameters were compared using a one-way ANOVA with a Tukey’s post-hoc analysis (Prism 6, Graphpad Software, La Jolla, CA).

[6] = tested on: An. gambiae G3 strain; assay: Topical toxicity bioassay, An. gambiae G3 strain adult females; assay type: in vivo, Anopheles gambiae; details: adult female An. gambiae; for ED50, G3 Strain: 24 h, (95% confidence limits), synergists PBO/DEF applied 4 h prior where labelled
Protocol: as §1

[7] = biological target: T2, Kir6.2/SUR1 (Homo sapiens, UniProt Q14654); assay: Tl+ flux assay, mammalian Kir6.2/SUR1; assay type: cell-based
T2 construct: expressed in transfected cells

[8] = tested on: Ae. aegypti; assay: Topical toxicity bioassay, Ae. aegypti (LVP and PR strains) adult females; assay type: in vivo, Aedes aegypti; details: LVP strain
Protocol: Topical toxicity bioassays in adult female Ae. aegypti (LVP and PR strains) were performed as described previously. […] A solvent-only treatment was included in each experiment as a negative control. Treated mosquitoes were transferred to small cages with access to 10% sucrose and held under rearing conditions for 24 h. The efficacy of a dose was measured as the percentage of treated mosquitoes in a cage that were flightless or dead at 24 h. Four to eight replicates of 10 mosquitoes were performed per dose. The ED50 values were determined using a non-linear curve fit analysis (log [inhibitor] vs. response variable-slope) in Prism 6 (Graphpad Software).
Six replicate experiments of 10 mosquitoes were performed.

T2 sequence (Q14654 whole entry): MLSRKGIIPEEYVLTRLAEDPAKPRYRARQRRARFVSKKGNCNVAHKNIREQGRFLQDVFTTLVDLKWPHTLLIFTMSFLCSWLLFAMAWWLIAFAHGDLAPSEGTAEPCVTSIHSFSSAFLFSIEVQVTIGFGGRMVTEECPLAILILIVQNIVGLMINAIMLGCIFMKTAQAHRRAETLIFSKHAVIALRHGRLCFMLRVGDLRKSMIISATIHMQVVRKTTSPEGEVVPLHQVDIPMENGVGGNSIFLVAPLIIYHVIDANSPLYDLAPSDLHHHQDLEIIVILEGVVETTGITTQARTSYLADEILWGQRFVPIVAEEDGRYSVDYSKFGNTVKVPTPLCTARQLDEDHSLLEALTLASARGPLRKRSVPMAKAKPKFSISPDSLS
T2 sequence (Q09428 whole entry partner): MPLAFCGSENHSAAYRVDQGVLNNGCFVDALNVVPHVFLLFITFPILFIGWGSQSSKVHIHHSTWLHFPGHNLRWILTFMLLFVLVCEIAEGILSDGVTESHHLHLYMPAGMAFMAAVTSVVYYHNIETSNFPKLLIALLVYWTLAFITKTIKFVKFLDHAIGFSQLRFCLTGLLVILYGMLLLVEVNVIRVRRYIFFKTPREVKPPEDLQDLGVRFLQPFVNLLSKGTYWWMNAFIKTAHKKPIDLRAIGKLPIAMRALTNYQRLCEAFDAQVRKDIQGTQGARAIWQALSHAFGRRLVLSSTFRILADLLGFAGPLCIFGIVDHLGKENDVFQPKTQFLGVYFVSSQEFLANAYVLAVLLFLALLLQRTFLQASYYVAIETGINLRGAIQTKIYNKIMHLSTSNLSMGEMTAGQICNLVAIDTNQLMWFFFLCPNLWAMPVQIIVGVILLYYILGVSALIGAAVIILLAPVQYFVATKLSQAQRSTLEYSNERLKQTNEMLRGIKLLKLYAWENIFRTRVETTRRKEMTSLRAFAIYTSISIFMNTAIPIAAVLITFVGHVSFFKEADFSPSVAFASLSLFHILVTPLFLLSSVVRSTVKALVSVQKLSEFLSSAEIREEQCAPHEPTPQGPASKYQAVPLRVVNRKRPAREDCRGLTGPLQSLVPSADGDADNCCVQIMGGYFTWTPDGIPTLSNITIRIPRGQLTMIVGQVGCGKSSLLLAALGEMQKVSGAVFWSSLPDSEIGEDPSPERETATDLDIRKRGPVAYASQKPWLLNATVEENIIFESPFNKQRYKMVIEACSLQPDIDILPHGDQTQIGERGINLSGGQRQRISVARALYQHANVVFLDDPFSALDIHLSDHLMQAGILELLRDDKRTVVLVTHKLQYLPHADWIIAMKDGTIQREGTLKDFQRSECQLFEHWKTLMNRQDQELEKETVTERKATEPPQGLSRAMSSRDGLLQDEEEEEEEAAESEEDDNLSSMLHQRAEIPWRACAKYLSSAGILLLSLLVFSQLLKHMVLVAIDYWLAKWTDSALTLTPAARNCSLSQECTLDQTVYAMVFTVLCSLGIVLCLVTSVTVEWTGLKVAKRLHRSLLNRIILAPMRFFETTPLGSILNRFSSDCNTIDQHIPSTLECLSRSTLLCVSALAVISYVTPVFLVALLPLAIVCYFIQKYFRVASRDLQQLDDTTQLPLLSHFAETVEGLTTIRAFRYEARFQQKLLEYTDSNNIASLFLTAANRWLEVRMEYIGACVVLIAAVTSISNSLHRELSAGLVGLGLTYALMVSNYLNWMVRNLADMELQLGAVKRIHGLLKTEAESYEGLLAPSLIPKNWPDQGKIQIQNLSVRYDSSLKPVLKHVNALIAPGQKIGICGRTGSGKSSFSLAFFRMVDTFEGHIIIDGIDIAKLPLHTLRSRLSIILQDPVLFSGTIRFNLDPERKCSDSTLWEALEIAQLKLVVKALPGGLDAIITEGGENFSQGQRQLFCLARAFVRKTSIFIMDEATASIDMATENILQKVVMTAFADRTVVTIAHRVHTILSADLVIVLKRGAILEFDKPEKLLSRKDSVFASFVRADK

| Compound | median number of eggs laid per mosquito vs control [1] | IC50 [2] [nM] | median number of eggs laid per mosquito vs control [3] | ED50, Akron Strain [4] | change of abdominal diameter after blood meal [5] | ED50, G3 Strain [6] | ED30 [6] | inhibition at 30 µM [7] [%] | ED50 ([8]; topical, 24 h, flightless or dead) [μg/mg mosquito] | topical toxicity ([8]; dose near ED50 of VU041, 24 h) |
| --- | --- | --- | --- | --- | --- | --- | --- | --- | --- | --- |
| O=C(Cn1nc(C(F)(F)F)c2c1CCCC2)N1CCCc2ccccc21 [VU041, 1-(3,4-dihydroquinolin-1(2H)-yl)-2-(3-(trifluoromethyl)-4,5,6,7-tetrahydro-1H-indazol-1-yl)ethan-1-one] | significantly lower median number of eggs per mosquito | 1700 | significantly lower median number of eggs per mosquito | 2.8 (2.1–4.1) A μg/mg | did not change over the following 24 h period | 1.8 (0.9–3.1) A μg/mg | 1 μg/mg of mosquito | < 10 | 3.24 | – |
| O=C(Cn1ncc2c1CCOC2)N1CCCc2ccccc21 [VU730] | – | – | – | – | – | 2.4 (2.1–2.9) A μg/mg | – | – | – | – |
| O=C(Cn1nc(C(F)(F)F)c2c1CCCC2)NC1CCC1 [VU937] | – | – | – | >10 µg/mg | decreased significantly over 24 h | >10 µg/mg | – | – | – | not toxic |
